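In this assay, cells in 96-well plates receive the compound at five concentrations for 48 hours. Endpoints are linearly interpolated between the surrounding concentrations. TGI is the concentration that stops growth completely.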
Assays:
Assay in all cases: NCI anticancer screen, dose series, 48 h
[1] = test system: PC-3 prostate
[2] = test system: RXF 393 renal
[3] = test system: HCC-2998 colon
[4] = test system: BT-549 breast
[5] = test system: HCT-15 colon
[6] = test system: OVCAR-4 ovarian
[7] = test system: MDA-MB-435
[8] = test system: A498 renal
[9] = test system: SK-MEL-2 melanoma
[10] = test system: EKVX NSCLC
[11] = test system: ACHN renal
[12] = test system: MOLT-4 leukemia
[13] = test system: TK-10 renal
[14] = test system: MDA-N
[15] = test system: SN12C renal
[16] = test system: DU-145 prostate
[17] = test system: A549 NSCLC
[18] = test system: T-47D breast
[19] = test system: SK-MEL-28 melanoma
[20] = test system: SK-OV-3 ovarian
[21] = test system: SF-539 CNS
[22] = test system: COLO 205 colon
[23] = test system: CCRF-CEM leukemia
[24] = test system: HOP-92 NSCLC
[25] = test system: HCT-116 colon
[26] = test system: NCI-H23 lung
[27] = test system: K-562 leukemia
[28] = test system: NCI/ADR-RES ovarian
[29] = test system: HL-60(TB) leukemia
[30] = test system: 786-0 renal
[31] = test system: HS 578T breast
[32] = test system: SW-620 colon
[33] = test system: SF-295 CNS
[34] = test system: MCF7 breast
[35] = test system: OVCAR-8 ovarian
[36] = test system: NCI-H226 lung
[37] = test system: IGROV1 ovarian
[38] = test system: HOP-62 NSCLC
[39] = test system: SK-MEL-5 melanoma
[40] = test system: KM12 colon
[41] = test system: NCI-H460 lung
[42] = test system: LOX IMVI melanoma
[43] = test system: NCI-H522 lung
[44] = test system: RPMI-8226 leukemia
[45] = test system: MALME-3M melanoma
[46] = test system: UACC-257 melanoma
[47] = test system: UACC-62 melanoma
[48] = test system: OVCAR-5 ovarian
[49] = test system: SF-268 CNS
[50] = test system: M14 melanoma
[51] = test system: MDA-MB-231 breast
[52] = test system: UO-31 renal
[53] = test system: HT29 colon
[54] = test system: OVCAR-3 ovarian
[55] = test system: SNB-75 CNS
[56] = test system: SR leukemia
[57] = test system: SNB-19 CNS
[58] = test system: CAKI-1 renal
[59] = test system: U251 CNS

In the case of `CCOc1cc(NC(C)=O)ccc1C(=O)NN1C(=O)C(Cl)C1c1ccc(O)c(OC)c1` (stereo unspecified), the TGI [1] is reported as 28.3 µM, the TGI [2] is reported as 29.2 µM and the TGI [3] is reported as 32.2 µM. The TGI [4] was 21.9 µM, the TGI [5] was 29.9 µM and the TGI [6] was 31.6 µM. The TGI [7] was 29.8 µM, the TGI [8] was 28.4 µM and the TGI [9] was 33.5 µM. The TGI [10] was 31.5 µM, the TGI [11] was 30.3 µM and the TGI [12] was 19 µM. For the same compound, the TGI [13] was 11.5 µM, the TGI [14] was 31.9 µM and the TGI [15] was 31 µM. The TGI [16] was 29 µM, the TGI [17] was 32.5 µM and the TGI [18] was 30.8 µM. It also gave a TGI [19] of 38.2 µM, a TGI [20] of 33.6 µM and a TGI [21] of 26.8 µM. It also gave a TGI [22] of 35.1 µM, a TGI [23] of 25.8 µM and a TGI [24] of 32.3 µM. It also gave a TGI [25] of 37.7 µM, a TGI [26] of 25.4 µM and a TGI [27] of 25.1 µM. It also gave a TGI [28] of 57.4 µM, a TGI [29] of 38.3 µM and a TGI [30] of 26 µM. It also gave a TGI [31] of 51.5 µM, a TGI [32] of 60.1 µM and a TGI [33] of 39.1 µM. The TGI [34] was 30.4 µM, the TGI [35] was 82.3 µM and the TGI [36] was 48.3 µM. The TGI [37] was 28.2 µM, the TGI [38] was 35.8 µM and the TGI [39] was 22.8 µM. The TGI [40] was 33.6 µM, the TGI [41] was 33.1 µM and the TGI [42] was 7.79 µM. The TGI [43] was 22.8 µM, the TGI [44] was 40.5 µM and the TGI [45] was 22 µM. The TGI [46] was 27 µM, the TGI [47] was 25.5 µM and the TGI [48] was 33.9 µM. It also gave a TGI [49] of 35.9 µM, a TGI [50] of 28.1 µM and a TGI [51] of 26.9 µM. The TGI [52] was 11.1 µM, the TGI [53] was 31.9 µM and the TGI [54] was 38.5 µM. It also gave a TGI [55] of 24.1 µM, a TGI [56] of 19.5 µM and a TGI [57] of 29.5 µM. The TGI [58] was 31.4 µM.
`COP(=N[Si](C)(C)C)(OC)OC` was tested, and the TGI [1] was over 100 µM, the TGI [2] was over 100 µM and the TGI [3] was over 100 µM. It also gave a TGI [4] of over 100 µM, a TGI [5] of over 100 µM and a TGI [6] of over 100 µM. The TGI [7] was over 100 µM, the TGI [8] was over 100 µM and the TGI [9] was over 100 µM. For the same compound, the TGI [10] was over 100 µM, the TGI [11] was over 100 µM and the TGI [12] was over 100 µM. It also gave a TGI [13] of over 100 µM, a TGI [14] of over 100 µM and a TGI [15] of over 100 µM. It also gave a TGI [16] of over 100 µM, a TGI [17] of over 100 µM and a TGI [18] of over 100 µM. It also gave a TGI [19] of over 100 µM, a TGI [20] of over 100 µM and a TGI [21] of over 100 µM. For the same compound, the TGI [22] was over 100 µM, the TGI [23] was over 100 µM and the TGI [24] was over 100 µM. It also gave a TGI [25] of over 100 µM, a TGI [26] of over 100 µM and a TGI [59] of over 100 µM. The TGI [27] was over 100 µM, the TGI [28] was over 100 µM and the TGI [29] was over 100 µM. The TGI [30] was over 100 µM, the TGI [31] was over 100 µM and the TGI [32] was over 100 µM. For the same compound, the TGI [34] was over 100 µM, the TGI [35] was over 100 µM and the TGI [36] was over 100 µM. The TGI [37] was over 100 µM, the TGI [38] was over 100 µM and the TGI [39] was over 100 µM. The TGI [40] was over 100 µM, the TGI [41] was over 100 µM and the TGI [42] was over 100 µM. The TGI [43] was over 100 µM, the TGI [44] was over 100 µM and the TGI [45] was over 100 µM. For the same compound, the TGI [46] was over 100 µM, the TGI [47] was over 100 µM and the TGI [48] was over 100 µM. For the same compound, the TGI [49] was over 100 µM, the TGI [50] was over 100 µM and the TGI [51] was over 100 µM. The TGI [52] was over 100 µM, the TGI [53] was over 100 µM and the TGI [54] was over 100 µM. It also gave a TGI [55] of over 100 µM, a TGI [56] of over 100 µM and a TGI [57] of over 100 µM. For the same compound, the TGI [58] was over 100 µM.
